ChEMBL document CHEMBL1201862, “PubChem BioAssay data set” (2004)
Where a name gives a salt, the structure may show the parent alone.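 Method: 48-hour compound exposure of cells in 96-well plates, five concentrations, linear interpolation of endpoints. The concentration for 50% growth inhibition is given as GI50.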 Active and inactive are the calls of the source. Cut-off read from the data, not from the text of the source: active = GI50 up to about 1.1 µM and inactive = higher.

Key:
Experiment in all cases: growth of human tumour cells (NCI), 48 h
BT-549 = test system: BT-549
IGROV-1 = test system: IGROV-1
SF-268 = test system: SF-268
HCC 2998 = test system: HCC 2998
DU-145 = test system: DU-145
HL-60 = test system: HL-60
SF-539 = test system: SF-539
PC-3 = test system: PC-3
CCRF-CEM = test system: CCRF-CEM
EKVX = test system: EKVX
K562 = test system: K562
NCI-H23 = test system: NCI-H23
M14 = test system: M14
CAKI-1 = test system: CAKI-1
NCI/ADR-RES = test system: NCI/ADR-RES
SK-OV-3 = test system: SK-OV-3
SK-MEL-2 = test system: SK-MEL-2
UO-31 = test system: UO-31
MDA-N = test system: MDA-N

| Compound | GI50 (BT-549) | GI50 (IGROV-1) | GI50 (SF-268) | GI50 (HCC 2998) | GI50 (DU-145) | GI50 (HL-60) | GI50 (SF-539) | GI50 (PC-3) | GI50 (CCRF-CEM) | GI50 (EKVX) | GI50 (K562) | GI50 (NCI-H23) | GI50 (M14) | GI50 (CAKI-1) | GI50 (NCI/ADR-RES) | GI50 (SK-OV-3) | GI50 (SK-MEL-2) | GI50 (UO-31) | GI50 (MDA-N) |
| --- | --- | --- | --- | --- | --- | --- | --- | --- | --- | --- | --- | --- | --- | --- | --- | --- | --- | --- | --- |
| CC(C)CCC[C@@H](C)[C@H]1CC[C@H]2[C@@H]3CC[C@H]4C[C@@H](CCC=C(c5cc(Cl)c(O)c(C(=O)O)c5)c5cc(Cl)c(O)c(C(=O)O)c5)CC[C@]4(C)[C@H]3CC[C@]12C | > 100 µM (inactive) | > 100 µM (inactive) | > 100 µM (inactive) | > 100 µM (inactive) | > 100 µM (inactive) | > 100 µM (inactive) | > 100 µM (inactive) | > 100 µM (inactive) | > 100 µM (inactive) | > 100 µM (inactive) | > 100 µM (inactive) | > 100 µM (inactive) | > 100 µM (inactive) | > 100 µM (inactive) | > 100 µM (inactive) | > 100 µM (inactive) | > 100 µM (inactive) | > 100 µM (inactive) | – |
| Clc1cccc(C2ON=C(c3ccccc3)N2C23CC4CC(CC(C4)C2)C3)c1Cl (stereo not given) | – | > 10 µM (inactive) | > 10 µM (inactive) | > 10 µM (inactive) | > 10 µM (inactive) | – | > 10 µM (inactive) | 6.41 µM (inactive) | > 10 µM (inactive) | > 10 µM (inactive) | > 10 µM (inactive) | > 10 µM (inactive) | > 10 µM (inactive) | > 10 µM (inactive) | > 10 µM (inactive) | > 10 µM (inactive) | > 10 µM (inactive) | 5.02 µM (inactive) | > 10 µM (inactive) |
| CCOC(=O)c1ccc(NCc2ccc3oc(=O)c(-c4ccccc4)nc3c2)cc1 | – | 67 µM (inactive) | 64.1 µM (inactive) | > 100 µM (inactive) | 36.2 µM (inactive) | 3.94 µM (inactive) | > 100 µM (inactive) | 45.2 µM (inactive) | 3.46 µM (inactive) | 52.8 µM (inactive) | 22.5 µM (inactive) | 19.1 µM (inactive) | 31.3 µM (inactive) | 5.2 µM (inactive) | 50.7 µM (inactive) | > 100 µM (inactive) | > 100 µM (inactive) | 27 µM (inactive) | 21.5 µM (inactive) |
| CC1(C)OC([C@H](O)CO)C([C@H]2NCCS2)O1 (stereo not given in full) | > 100 µM (inactive) | > 100 µM (inactive) | > 100 µM (inactive) | > 100 µM (inactive) | > 100 µM (inactive) | > 100 µM (inactive) | – | > 100 µM (inactive) | > 100 µM (inactive) | > 100 µM (inactive) | > 100 µM (inactive) | > 100 µM (inactive) | > 100 µM (inactive) | > 100 µM (inactive) | > 100 µM (inactive) | > 100 µM (inactive) | > 100 µM (inactive) | > 100 µM (inactive) | – |
| O=C(O)c1c2c(cc3c1CC1(Cc4ccccc4C1=O)C3)CCC2 (stereo not given) | 33 µM (inactive) | > 61.5 µM (inactive) | 59.4 µM (inactive) | 3.33 µM (inactive) | 64 µM (inactive) | 3.17 µM (inactive) | 29.7 µM (inactive) | 27.2 µM (inactive) | 9.91 µM (inactive) | 33.9 µM (inactive) | 5.79 µM (inactive) | 44 µM (inactive) | 18.9 µM (inactive) | 41.5 µM (inactive) | 28.7 µM (inactive) | 47.4 µM (inactive) | 19 µM (inactive) | 38 µM (inactive) | – |
| C#Cc1cccc(Nc2ncnc3cc(OCCOC)c(OCCOC)cc23)c1 [ERLOTINIB HYDROCHLORIDE] | – | 0.0857 µM (active) | – | – | – | – | 15.4 µM (inactive) | 34.5 µM (inactive) | > 100 µM (inactive) | – | – | 41.7 µM (inactive) | 6.67 µM (inactive) | < 0.01 µM (active) | 7.67 µM (inactive) | 0.286 µM (active) | 4.11 µM (inactive) | 3.79 µM (inactive) | 41 µM (inactive) |
| N=c1oc2ccc([N+](=O)[O-])cc2cc1C(=O)NCc1ccccc1 | 14 µM (inactive) | 12.3 µM (inactive) | 22.3 µM (inactive) | 32.1 µM (inactive) | 33 µM (inactive) | 27.2 µM (inactive) | 17.7 µM (inactive) | 19.6 µM (inactive) | 27 µM (inactive) | 38.8 µM (inactive) | 40 µM (inactive) | – | 23.4 µM (inactive) | 19.2 µM (inactive) | 16.5 µM (inactive) | 39.2 µM (inactive) | 19.3 µM (inactive) | 18 µM (inactive) | – |
| CN(C)c1ccc(/C=C(\NC(=O)c2ccccc2)C(=O)NC(CC(=O)O)C(=O)O)cc1 (stereo not given) | > 100 µM (inactive) | > 100 µM (inactive) | 61.4 µM (inactive) | > 100 µM (inactive) | > 100 µM (inactive) | > 100 µM (inactive) | > 100 µM (inactive) | > 100 µM (inactive) | > 100 µM (inactive) | > 100 µM (inactive) | 18.2 µM (inactive) | > 100 µM (inactive) | > 100 µM (inactive) | > 100 µM (inactive) | 43.7 µM (inactive) | > 100 µM (inactive) | > 100 µM (inactive) | > 100 µM (inactive) | – |
| O=C1Cc2c([nH]c3ccc(Br)cc23)-c2ccccc2N1 [KENPAULLONE] | – | 9.75 µM (inactive) | > 75.5 µM (inactive) | > 100 µM (inactive) | > 100 µM (inactive) | 5.21 µM (inactive) | 2.43 µM (inactive) | > 100 µM (inactive) | 5.55 µM (inactive) | > 100 µM (inactive) | > 54.8 µM (inactive) | > 100 µM (inactive) | > 100 µM (inactive) | – | > 100 µM (inactive) | > 100 µM (inactive) | > 100 µM (inactive) | > 100 µM (inactive) | > 100 µM (inactive) |
| FC(F)(F)c1ccc(/N=C/C=C(/Nc2ccc(C(F)(F)F)cc2)c2ccc(Cl)cc2)cc1 | – | 2.62 µM (inactive) | 12.1 µM (inactive) | – | 13.5 µM (inactive) | 12.9 µM (inactive) | 14.2 µM (inactive) | 18 µM (inactive) | 5.22 µM (inactive) | 15.9 µM (inactive) | 18.4 µM (inactive) | 12.2 µM (inactive) | 12.8 µM (inactive) | 3.49 µM (inactive) | 13.7 µM (inactive) | 16.4 µM (inactive) | 8.34 µM (inactive) | 14.5 µM (inactive) | – |
| COCn1cc(C2=C(C)C(=O)C(C)=C(C)C2=O)cn1 | – | > 100 µM (inactive) | 25.4 µM (inactive) | > 100 µM (inactive) | > 100 µM (inactive) | 4.6 µM (inactive) | > 100 µM (inactive) | > 100 µM (inactive) | 21.9 µM (inactive) | 18.2 µM (inactive) | 18.9 µM (inactive) | > 100 µM (inactive) | > 100 µM (inactive) | > 100 µM (inactive) | 26.2 µM (inactive) | – | > 100 µM (inactive) | 57.5 µM (inactive) | 48.6 µM (inactive) |
| Cc1c2ccccc2c(/C=N/NC(=O)CSCC(=O)N/N=C/c2c3ccccc3c(C)c3ccccc23)c2ccccc12 | 40.7 µM (inactive) | > 100 µM (inactive) | 23.8 µM (inactive) | 18.3 µM (inactive) | > 55.8 µM (inactive) | > 68.7 µM (inactive) | 18.1 µM (inactive) | > 31.4 µM (inactive) | 34.2 µM (inactive) | > 59 µM (inactive) | 37.9 µM (inactive) | 11.4 µM (inactive) | > 52.5 µM (inactive) | > 67.1 µM (inactive) | > 63.5 µM (inactive) | > 100 µM (inactive) | > 78.3 µM (inactive) | > 84.1 µM (inactive) | – |
| CN(C)c1cccc2c(S(=O)(=O)NCCCNCCN)cccc12 | – | 67.9 µM (inactive) | 65.6 µM (inactive) | 24 µM (inactive) | > 100 µM (inactive) | 26.1 µM (inactive) | 21.3 µM (inactive) | 44.2 µM (inactive) | 22.3 µM (inactive) | > 100 µM (inactive) | 20.8 µM (inactive) | 82.4 µM (inactive) | 18.9 µM (inactive) | > 100 µM (inactive) | > 100 µM (inactive) | 46.9 µM (inactive) | 25.9 µM (inactive) | 56.9 µM (inactive) | 26.2 µM (inactive) |
| CC1=CC(=O)C[C@]2(C)[C@@H](O)CC(C(C)CO)C[C@@H]12 (stereo not given in full) | > 100 µM (inactive) | > 100 µM (inactive) | > 100 µM (inactive) | > 100 µM (inactive) | > 100 µM (inactive) | > 100 µM (inactive) | > 100 µM (inactive) | – | – | > 100 µM (inactive) | – | > 100 µM (inactive) | > 100 µM (inactive) | > 100 µM (inactive) | > 100 µM (inactive) | > 100 µM (inactive) | > 100 µM (inactive) | > 100 µM (inactive) | > 100 µM (inactive) |
| O=[N+]([O-])C(C(Cl)=C(Cl)Cl)=C(N1CCOCC1)N1CCOCC1 | – | > 100 µM (inactive) | > 100 µM (inactive) | > 100 µM (inactive) | > 100 µM (inactive) | > 100 µM (inactive) | > 100 µM (inactive) | > 100 µM (inactive) | > 100 µM (inactive) | > 100 µM (inactive) | > 100 µM (inactive) | > 100 µM (inactive) | > 100 µM (inactive) | > 100 µM (inactive) | – | > 100 µM (inactive) | > 100 µM (inactive) | > 100 µM (inactive) | > 100 µM (inactive) |
| O=C(O)C(C(C(=O)O)P(=O)(O)O)P(=O)(O)O (stereo not given) | > 100 µM (inactive) | > 100 µM (inactive) | > 100 µM (inactive) | > 100 µM (inactive) | > 100 µM (inactive) | > 100 µM (inactive) | > 100 µM (inactive) | > 100 µM (inactive) | > 100 µM (inactive) | > 100 µM (inactive) | > 100 µM (inactive) | – | > 100 µM (inactive) | – | – | > 100 µM (inactive) | > 100 µM (inactive) | > 100 µM (inactive) | > 100 µM (inactive) |
